In patent publication US9980972B2, “Rho kinase inhibitors for use in treating familial amyotrophic lateral sclerosis” (GEORG-AUGUST-UNIVERSITÄT GÖTTINGEN STIFTUNG ÖFFENTLICHEN …, priority 2012, dated 2018):

Legend:
[1] = system: SOD1 G93A mouse model of ALS; experiment: Survival (age at death) in SOD1 G93A mouse model of ALS; assay type: in vivo; settings: presymptomatic from d50, 10 mg/kg body weight, male and female
From the text: High-copy B6SJL-Tg(SOD1*G93A)1Gur/J were obtained from Jackson Labs (Stock Number 002726; Bar Harbor, USA) that had originally been produced by Gurney et al. (Gurney, Pu et al. 1994). The colony was maintained by crossing C57BL/6 males harboring the transgene with wild-type SJL females. To verify presence of the transgene in the F1 progeny, tail biopsies were collected from 14-day-old pups and genotyped using PCR. At the age of 35-45 days mice were moved to the testing facility to acclimate to the new environment with a 12-h light/dark cycle before being assigned to a study.
At 50 days (presymptomatic, d50) or 80 days of age (symptomatic, d80) mice were separated into Fasudil-30 (Fas30)- and Fasudil-100 (Fas100)-Treatment or Vehicle Control (Veh) groups. Prior to any treatment, groups were constituted so as to minimize between-group variability by using the following criteria. Groups were balanced with respect to gender and body weight within gender. In addition, groups were age-matched and littermate-matched. […] The study was observer-blinded.
To reach sufficient CSF levels of Fasudil the inventors administered Fasudil (LC Labs, Woburn, USA; product number F-4660) at a low concentration of […] (Fas30) or at a high concentration of 50 mg (Fas100) in 100 ml drinking water. Control groups received the respective amount of isotonic drinking water termed as vehicle (Veh).
Chronic oral treatment with a low dose of Fasudil (F30) or a high dose of Fasudil (F100) was started either presymptomatically at day 50 or symptomatically at day 80 and continued until death.
Survival. Date and cause of death were recorded for each mouse. For humane reasons, animals are closely monitored and sacrificed as moribund prior to actual death using criteria for severe moribundity. To determine duration of survival reliably and humanely, the moribund state, defined as the inability of mice to right themselves 30 seconds after being placed on a side (a neurological score of 4) was used. The moribund mice were scored as “dead”, and were euthanized using carbon dioxide.
The data were then analyzed using Kaplan-Meier survival fit analysis with the Log-Rank and Wilcoxon tests for statistical significance. Cox proportional hazards analysis was also performed to determine hazard ratios and test for statistical significance of their differences using the Effect Likelihood Chi Square test. Statistical analyses were performed using Statistica 9.1 (StatSoft, Hamburg, Germany). P-values less than 0.05 were taken to be statistically significant.
The criteria to terminate the therapy study (later referred to as time of death) were fulfilled if the animals had reached the terminal neurological scoring or had lost a defined percentage of the maximal body weight. This time point then reflects the survival time of the animals whereas disease duration was measured from onset of disease until time of death.

[2] = system: regenerating axons after optic nerve crush lesion; settings: high intravitreal dose 40 μmol/l in comparison to medium dose 400 nmol/l; cited from earlier work

| SMILES | survival [1] | number of regenerating axons after optic nerve crush lesion [2] |
| --- | --- | --- |
| C[C@@H](N)[C@H]1CC[C@H](C(=O)Nc2ccncc2)CC1 [Y-27632] | no significant effects |  |
| Cc1cncc2cccc(S(=O)(=O)N3CCCNC[C@@H]3C)c12 [dimethyl-fasudil, (S)-(+)-2-Methyl-1-[(4-methyl-5-isoquinolinyl)sulfonyl]-hexahydro-1H-1,4-diazepine] |  | significantly reduced |
